Experimental data reported in patent publication US8585942B2, “Process and arrangement for producing particles utilizing subcritical fluids” (XSpray Microparticles AB, priority 2007, dated 2013).

Legend:
[1] = Particle size characterisation by laser diffraction (Mastersizer 2000); type: physicochemical; conditions: budesonide particles; for Particle size distribution D(0.1′): diameter for the smallest particles up to 10% of the material analyzed; for Particle size distribution d(0.5)′ (mean particle size): diameter for the smallest particles up to 50% of the material analyzed; for Particle size distribution d(0.9)′: diameter for the smallest particles up to 90% of the material analyzed
From the text: The terms “particle size”, “particle size diameter” and “particle size distribution” in this specification refer to values obtained as given in the Experimental Part (laser diffraction by the use of Mastersizer 2000 from Malvern Instruments Ltd, Worcestershire, United Kindom). For the meaning of “mean particle size” or “mean particle diameter” see also the Experimental Part.
A 2% w/v budesonide solution in acetone was introduced into the nozzle of FIG. 2 placed in the arrangement of FIG. 1 (except for the recycling capability) using a separate high-performance liquid chromatography pump 1.4 ml/min, together with the 125 g/min scCO2 (about 150 ml/min) which was modified with the make-up agent 4.2 ml/min acetone. The pressure in the system was 100 atm. and temperature was at 60° C. All of the streams contact within the nozzle and the budesonide powder formed and collected in the particle collecting chamber. The scCO2 and acetone was drained via the backpressure regulator outlet. Then, a further washing process was performed to eliminate the solvent mixed in the scCO2. After the washing process, the CO2 was slowly drained off from the chamber. Once the CO2 had been completely removed, the particles on the filter and on the wall were collected for analysis. The particles were characterized by laser diffraction in Mastersizer 2000 (Malvern Instruments Ltd, Worcestershire, United Kingdom).

[2] = Particle morphology and size by scanning electron microscope (TM-1000 Hitachi); type: physicochemical; conditions: Example 6: solvent acetone, fluid water 10 ml/min, solution 0.2 ml/min, coaxial tube nozzle (FIG. 6)
Description: It had two high pressure pumps (Jasco PU 980). One of the pump (624b) is used to feed the solution (0.2 ml/min Piroxicam in acetone (2% w/v)) (602) via a transport conduit (621) and the other pump (624a) is used to feed 10 ml/min water (fluid, anti-solvent) (603) via transport conduit (616) to a spray nozzle (601) placed in a particle collection chamber (605) containing at its outlet (625) a function for separating particles (filter) (615). The nozzle internal transport conduits were two stainless steel tubes (610,612) that were placed coaxially to each other with the inner one (612) connected to the pump (624b) for the solution and the outer one (610) to the pump (624a) for fluid. […] Particle sizes were determined to be less than 3 μm. […]
A high pressure pump (Thar P50) (724a) is used to feed 50 ml/min water (fluid, anti-solvent) (703) via a transport conduit (716) and a high pressure pump (Jasco PU 980) (724b) is used to feed 1 ml/min solution of Piroxicam in acetone (2% w/v) (702) via transport conduit (721) to a nozzle (701) placed in a particle collecting chamber (705) containing at its outlet (725) a particle separation function in the form of a filter cup (715). […] The morphology and size of the crystals in the filter cup is determined using TM1000 Hitachi scanning electron microscope. Particle sizes were determined to be between 0.5 μm to 2 μm. […]

| Particle sizes [2] | Structure (SMILES) | Spec. Surface Area [1] | Particle size distribution D(0.1′) [1] | Particle size distribution d(0.5)′ (mean particle size) [1] | Particle size distribution d(0.9)′ [1] |
| --- | --- | --- | --- | --- | --- |
| – | CCCC1O[C@@H]2C[C@H]3[C@@H]4CCC5=CC(=O)C=C[C@]5(C)[C@H]4[C@@H](O)C[C@]3(C)[C@]2(C(=O)CO)O1 (stereo partly drawn) [Example 1, budesonide] | 1.7 m^2/g | ≦1.9 μm | ≦4.0 μm | ≦7.9 μm |
| – | CCCC1O[C@@H]2C[C@H]3[C@@H]4CCC5=CC(=O)C=C[C@]5(C)[C@H]4[C@@H](O)C[C@]3(C)[C@]2(C(=O)CO)O1 (stereo partly drawn) [Example 2, budesonide] | 1.7 m^2/g | ≦1.1 μm | ≦1.9 μm | ≦3.4 μm |
| – | CCCC1O[C@@H]2C[C@H]3[C@@H]4CCC5=CC(=O)C=C[C@]5(C)[C@H]4[C@@H](O)C[C@]3(C)[C@]2(C(=O)CO)O1 (stereo partly drawn) [Example 3, budesonide] | 1.6 m^2/g | ≦2.2 μm | ≦4.2 μm | ≦8.7 μm |
| – | CCCC1O[C@@H]2C[C@H]3[C@@H]4CCC5=CC(=O)C=C[C@]5(C)[C@H]4[C@@H](O)C[C@]3(C)[C@]2(C(=O)CO)O1 (stereo partly drawn) [Example 4, budesonide] | 0.6 m^2/g | ≦6.3 μm | ≦14.2 μm | ≦26.7 μm |
| – | CCCC1O[C@@H]2C[C@H]3[C@@H]4CCC5=CC(=O)C=C[C@]5(C)[C@H]4[C@@H](O)C[C@]3(C)[C@]2(C(=O)CO)O1 (stereo partly drawn) [Example 5, budesonide] | 1.7 m^2/g | ≦2.0 μm | ≦4.1 μm | ≦7.9 μm |
| less than 3 μm | CN1C(C(=O)Nc2ccccn2)=C(O)c2ccccc2S1(=O)=O [Piroxicam] | – | – | – | – |
